# Results as given in ChEMBL document CHEMBL3784939, “Study on the synthesis and biological activities of α-substituted arylacetates derivatives” (Bioorg Med Chem Lett, 2016).
# The source made the active and inactive calls. The rule behind the calls is not given here.
# Key:
# Rattus norvegicus [1] = test: Hypoglycemic activity in diabetic rat model assessed as decrease in blood glucose level at 360 mg/kg, ig administered for 12 days measured on third day of compound dosing by glucometer relative to control; assay type: functional; conditions: po, 288 h
# [2] = Inhibition of alpha glucosidase (unknown origin) preincubated for 15 mins followed by p-nitrophenyl-alpha-D-glucopyranoside addition measured after 30 mins by spectrophotometric analysis; design: species or system Homo sapiens
# [3] = Cytotoxicity against human HCT116 cells after 72 hrs by MTT assay; assay type: functional, cell-based; conditions: HCT-116, 72 h
# [4] = Cytotoxicity against human BCG823 cells after 72 hrs by MTT assay; assay type: functional, cell-based; conditions: BCG823, 72 h
# [5] = Inhibition of alpha glucosidase (unknown origin) at 100 uM preincubated for 15 mins followed by p-nitrophenyl-alpha-D-glucopyranoside addition measured after 30 mins by spectrophotometric analysis; conditions: Homo sapiens
# Rattus norvegicus [6] = test: Hypoglycemic activity in diabetic rat model assessed as blood glucose level at 360 mg/kg, ig administered for 12 days measured on day 9 of compound dosing by glucometer (reference value: 21.95 +/- 2.83 mmol/l); assay type: functional
# Rattus norvegicus [7] = test: Hypoglycemic activity in diabetic rat model assessed as blood glucose level at 360 mg/kg, ig administered for 12 days measured on day 6 of compound dosing by glucometer (reference value: 21.95 +/- 2.83 mmol/l); assay type: functional
# Rattus norvegicus [8] = test: Hypoglycemic activity in diabetic rat model assessed as blood glucose level at 360 mg/kg, ig administered for 12 days measured on day 12 by glucometer (reference value: 21.95 +/- 2.83 mmol/l); assay type: functional
# NCI-H1650 = test: Cytotoxicity against human NCI-H1650 cells after 72 hrs by MTT assay; assay type: functional, cell-based; conditions: NCI-H1650, 72 h
# Rattus norvegicus [9] = test: Hypoglycemic activity in diabetic rat model assessed as decrease in blood glucose level at 360 mg/kg, ig administered for 12 days measured on sixth day of compound dosing by glucometer relative to control; assay type: functional; conditions: po, 288 h
# Rattus norvegicus [10] = test: Hypoglycemic activity in diabetic rat model assessed as decrease in blood glucose level at 360 mg/kg, ig administered for 12 days measured on ninth day of compound dosing by glucometer relative to control; assay type: functional; conditions: po, 288 h
# Rattus norvegicus [11] = test: Hypoglycemic activity in diabetic rat model assessed as decrease in blood glucose level at 360 mg/kg, ig administered for 12 days measured on twelfth day by glucometer relative to control; assay type: functional; conditions: po, 288 h
# [12] = Noncompetitive inhibition of alpha glucosidase (unknown origin) preincubated for 15 mins followed by p-nitrophenyl-alpha-D-glucopyranoside addition measured after 30 mins by Lineweaver-Burk plot analysis; design: species or system Homo sapiens
# Rattus norvegicus [13] = test: Hypoglycemic activity in diabetic rat model assessed as decrease in blood glucose level at 100 mg/kg, ig administered for 12 days measured on third day of compound dosing by glucometer relative to control; assay type: functional; conditions: po, 288 h
# Rattus norvegicus [14] = test: Hypoglycemic activity in diabetic rat model assessed as decrease in blood glucose level at 100 mg/kg, ig administered for 12 days measured on ninth day of compound dosing by glucometer relative to control; assay type: functional; conditions: po, 288 h
# Rattus norvegicus [15] = test: Hypoglycemic activity in diabetic rat model assessed as decrease in blood glucose level at 100 mg/kg, ig administered for 12 days measured on twelfth day by glucometer relative to control; assay type: functional; conditions: po, 288 h
# Rattus norvegicus [16] = test: Hypoglycemic activity in diabetic rat model assessed as decrease in blood glucose level at 100 mg/kg, ig administered for 12 days measured on sixth day of compound dosing by glucometer relative to control; assay type: functional; conditions: po, 288 h
# Rattus norvegicus [17] = test: Hypoglycemic activity in diabetic rat model assessed as decrease in blood glucose level at 20 mg/kg, ig administered for 12 days measured on ninth day of compound dosing by glucometer relative to control; assay type: functional; conditions: po, 288 h
# Rattus norvegicus [18] = test: Hypoglycemic activity in diabetic rat model assessed as decrease in blood glucose level at 20 mg/kg, ig administered for 12 days measured on sixth day of compound dosing by glucometer relative to control; assay type: functional; conditions: po, 288 h
# Rattus norvegicus [19] = test: Hypoglycemic activity in diabetic rat model assessed as decrease in blood glucose level at 20 mg/kg, ig administered for 12 days measured on twelfth day by glucometer relative to control; assay type: functional; conditions: po, 288 h
# Rattus norvegicus [20] = test: Hypoglycemic activity in diabetic rat model assessed as decrease in blood glucose level at 20 mg/kg, ig administered for 12 days measured on third day of compound dosing by glucometer relative to control; assay type: functional; conditions: po, 288 h
Compound,IC50 [2],IC50 [3],IC50 [4],inhibition [5],IC50 (NCI-H1650),other results
COC(=O)C(CO)c1ccc(C)cc1 (configuration not stated),> 200 µM,> 0.01 µg/mL,> 0.01 µg/mL,14.6%,> 0.01 µg/mL,inhibition in vivo at 360 mg/kg (Rattus norvegicus [1]): 7.86%; Activity (Rattus norvegicus [6]): 21.76 mmol/L; Activity (Rattus norvegicus [7]): 21.66 mmol/L; Activity (Rattus norvegicus [8]): 21.4 mmol/L
CCOC(=O)C(COC(=O)/C=C/c1ccc(OC)c(OC)c1)c1ccc(F)cc1 (configuration not stated),83.8 µM,> 0.01 µg/mL,> 0.01 µg/mL,47.8%,> 0.01 µg/mL,inhibition in vivo at 360 mg/kg (Rattus norvegicus [1]): 7.86%; inhibition in vivo at 360 mg/kg (Rattus norvegicus [9]): 7.86%; inhibition in vivo at 360 mg/kg (Rattus norvegicus [10]): 7.86%; inhibition in vivo at 360 mg/kg (Rattus norvegicus [11]): 19%
CCOC(=O)C(COC(=O)c1ccccc1)c1ccc(F)cc1 (configuration not stated),> 200 µM,> 0.01 µg/mL,> 0.01 µg/mL,27.3%,> 0.01 µg/mL,–
CCOC(=O)C(/C=N/OC)c1ccc(F)cc1 (configuration not stated),–,> 0.01 µg/mL,> 0.01 µg/mL,inactive,> 0.01 µg/mL,–
COC(=O)C(C=O)c1ccc(C)cc1 (configuration not stated),185 µM,> 0.01 µg/mL,> 0.01 µg/mL,29.3%,> 0.01 µg/mL,–
COC(=O)C(C=O)c1ccccc1 (configuration not stated),> 200 µM,> 0.01 µg/mL,> 0.01 µg/mL,15.3%,> 0.01 µg/mL,–
CCOC(=O)C(/C=N/NC(N)=S)c1ccc(C(F)(F)F)cc1 (configuration not stated),137 µM,0.00367 µg/mL,> 0.01 µg/mL,34%,0.00805 µg/mL,–
CCOC(=O)C(COC(=O)/C=C/c1ccc(OC)c(OC)c1)c1ccc(C(F)(F)F)cc1 (configuration not stated),191 µM,> 0.01 µg/mL,> 0.01 µg/mL,29.9%,> 0.01 µg/mL,–
CCOC(=O)C(COC(=O)c1ccccc1OC(C)=O)c1ccc(F)cc1 (configuration not stated),> 200 µM,> 0.01 µg/mL,> 0.01 µg/mL,15.8%,> 0.01 µg/mL,–
COC(=O)C(/C=N/NC(N)=S)c1ccc(OC)cc1 (configuration not stated),> 200 µM,0.0088 µg/mL,> 0.01 µg/mL,14.4%,0.0025 µg/mL,–
COC(=O)C(CO)c1ccccc1 (configuration not stated),186 µM,> 0.01 µg/mL,> 0.01 µg/mL,28.7%,> 0.01 µg/mL,–
CCOC(=O)C(C=O)c1ccc(F)cc1 (configuration not stated),183 µM,> 0.01 µg/mL,> 0.01 µg/mL,20.4%,> 0.01 µg/mL,–
CCOC(=O)C(/C=N/OC)c1ccc(C(F)(F)F)cc1 (configuration not stated),–,> 0.01 µg/mL,> 0.01 µg/mL,inactive,> 0.01 µg/mL,–
COC(=O)C(COC(=O)c1ccccc1)c1ccccc1 (configuration not stated),> 200 µM,> 0.01 µg/mL,> 0.01 µg/mL,12.9%,> 0.01 µg/mL,–
OC[C@H]1NC[C@H](O)[C@@H](O)[C@@H]1O [DUVOGLUSTAT],109 µM,–,–,52.5%,–,–
COC(=O)C(/C=N/NC(N)=S)c1ccc(C)cc1 (configuration not stated),190 µM,> 0.01 µg/mL,0.00522 µg/mL,20.8%,0.00534 µg/mL,–
COC(=O)C(/C=N/NC(N)=S)c1ccccc1 (configuration not stated),> 200 µM,0.00321 µg/mL,0.00818 µg/mL,19.8%,0.00325 µg/mL,–
CCOC(=O)C(C=O)c1ccc(C(F)(F)F)cc1 (configuration not stated),–,> 0.01 µg/mL,> 0.01 µg/mL,inactive,> 0.01 µg/mL,–
COC(=O)C(COC(=O)/C=C/c1ccc(OC)c(OC)c1)c1ccccc1 (configuration not stated),> 200 µM,> 0.01 µg/mL,> 0.01 µg/mL,11.1%,> 0.01 µg/mL,inhibition in vivo at 360 mg/kg (Rattus norvegicus [1]): 7.86%; inhibition in vivo at 360 mg/kg (Rattus norvegicus [9]): 7.86%; Activity (Rattus norvegicus [6]): 20.44 mmol/L; Activity (Rattus norvegicus [8]): 20.76 mmol/L
COC(=O)C(C=O)c1ccc(OC)cc1 (configuration not stated),> 200 µM,> 0.01 µg/mL,> 0.01 µg/mL,18.4%,> 0.01 µg/mL,–
CCOC(=O)C(/C=N/NC(N)=S)c1ccc(F)cc1 (configuration not stated),46.8 µM,0.00191 µg/mL,0.00727 µg/mL,65.3%,0.00198 µg/mL,inhibition in vivo at 360 mg/kg (Rattus norvegicus [1]): 10.3%; inhibition in vivo at 360 mg/kg (Rattus norvegicus [9]): 7.86%; Ki [12]: 65.4 µM; inhibition in vivo at 360 mg/kg (Rattus norvegicus [10]): 16.9%; inhibition in vivo at 360 mg/kg (Rattus norvegicus [11]): 18.1%
CCOC(=O)C(CO)c1ccc(F)cc1 (configuration not stated),> 200 µM,> 0.01 µg/mL,> 0.01 µg/mL,19.2%,> 0.01 µg/mL,–
COC(=O)C(CO)c1ccc(OC)cc1 (configuration not stated),–,> 0.01 µg/mL,> 0.01 µg/mL,inactive,> 0.01 µg/mL,–
CN(C)C(=N)NC(=N)N [METFORMIN],–,–,–,–,–,inhibition in vivo at 100 mg/kg (Rattus norvegicus [13]): 7.86%; inhibition in vivo at 100 mg/kg (Rattus norvegicus [14]): 7.86%; inhibition in vivo at 100 mg/kg (Rattus norvegicus [15]): 7.86%; inhibition in vivo at 100 mg/kg (Rattus norvegicus [16]): 7.86%
CCC1=C(C)CN(C(=O)NCCc2ccc(S(=O)(=O)NC(=O)N[C@H]3CC[C@H](C)CC3)cc2)C1=O [GLIMEPIRIDE],–,–,–,–,–,inhibition in vivo at 20 mg/kg (Rattus norvegicus [17]): 7.86%; inhibition in vivo at 20 mg/kg (Rattus norvegicus [18]): 7.86%; inhibition in vivo at 20 mg/kg (Rattus norvegicus [19]): 7.86%; inhibition in vivo at 20 mg/kg (Rattus norvegicus [20]): 7.86%
CCOC(=O)C(CO)c1ccc(C(F)(F)F)cc1 (configuration not stated),–,> 0.01 µg/mL,> 0.01 µg/mL,inactive,> 0.01 µg/mL,–
CCOC(=O)C(COC(=O)c1ccccc1)c1ccc(C(F)(F)F)cc1 (configuration not stated),> 200 µM,> 0.01 µg/mL,> 0.01 µg/mL,16.8%,> 0.01 µg/mL,–
CCOC(=O)C(COC(=O)c1ccccc1OC(C)=O)c1ccc(C(F)(F)F)cc1 (configuration not stated),> 200 µM,> 0.01 µg/mL,> 0.01 µg/mL,14.1%,> 0.01 µg/mL,–
COC(=O)C(COC(=O)c1ccccc1OC(C)=O)c1ccccc1 (configuration not stated),> 200 µM,> 0.01 µg/mL,> 0.01 µg/mL,13.7%,> 0.01 µg/mL,–
